pIC50: −log10 of the molar value. Positions of bridges follow the written chain, without caps; N, C: chain ends. Non-standard residues stand in square brackets, D forms with d. Residues, ends and D or L forms follow the SMILES beside them. *: point of attachment. NMeAbu(3,3-F2-piperidino) = CN[C@@H](CCN1CCCC(F)(F)C1)C(=O)O; hPhe(3-Cl-4-CF3) = N[C@@H](CCc1ccc(C(F)(F)F)c(Cl)c1)C(=O)O; hPhe(4-CF3) = N[C@@H](CCc1ccc(C(F)(F)F)cc1)C(=O)O; NMePhe(4-Cl) = CN[C@@H](Cc1ccc(Cl)cc1)C(=O)O; NMePhe(4-Me) = CN[C@@H](Cc1ccc(C)cc1)C(=O)O; NMePhe(4-F) = CN[C@@H](Cc1ccc(F)cc1)C(=O)O; Phe(3-I) = N[C@@H](Cc1cccc(I)c1)C(=O)O; Phe(4-Me) = Cc1ccc(C[C@H](N)C(=O)O)cc1; NMeCha = CN[C@@H](CC1CCCCC1)C(=O)O; Pro(4-oxo) = O=C1CN[C@H](C(=O)O)C1; NMeChg = CN[C@H](C(=O)O)C1CCCCC1; NMeF = CN[C@@H](Cc1ccccc1)C(=O)O; NMeI = CC[C@H](C)[C@H](NC)C(=O)O; NMeT = CN[C@H](C(=O)O)[C@@H](C)O; dNMeF = CN[C@H](Cc1ccccc1)C(=O)O; NMeD = CN[C@@H](CC(=O)O)C(=O)O; NMeL = CN[C@@H](CC(C)C)C(=O)O; NMeV = CN[C@H](C(=O)O)C(C)C; d(β3hA) = C[C@@H](N)CC(=O)O; Pip = O=C(O)[C@@H]1CCCCN1; NMeA = CN[C@@H](C)C(=O)O; NMeAib = CNC(C)(C)C(=O)O; Piperidide = C1CCN(*)CC1; Ac5c = NC1(C(=O)O)CCCC1; Aze = O=C(O)[C@@H]1CCN1; Abu = CC[C@H](N)C(=O)O; βAla = NCCC(=O)O; Sar = CNCC(=O)O

T1 sequence (P01116 1-188 isoform P01116-2 G12D): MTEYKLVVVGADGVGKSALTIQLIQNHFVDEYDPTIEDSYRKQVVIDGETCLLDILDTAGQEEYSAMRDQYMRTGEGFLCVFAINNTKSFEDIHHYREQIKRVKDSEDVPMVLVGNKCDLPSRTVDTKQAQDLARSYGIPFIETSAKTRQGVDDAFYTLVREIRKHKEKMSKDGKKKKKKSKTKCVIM

The assay has as its target T1, Kras and SOS1 (biotin-tagged human Kras loaded with GDP, His-tagged human SOS1) (Homo sapiens, UniProt P01116, G12D).
T1 construct: made in house; host or cells: E. coli (stated for Kras only)
Kind of assay: Protein-protein interaction inhibition between Kras and SOS1 (KrasGl2D-SOS PPI) using AlphaScreen. The class given is binding. As to conditions: AlphaScreen; biotin-tagged human Kras loaded with GDP, His-tagged human SOS1; read-out: KRAS G12D-SOS PPI IC50. In short, it runs like this:
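AlphaScreen format: Ni donor beads capture His-SOS1, streptavidin acceptor beads capture biotinylated Kras (E. coli-expressed, GDP-loaded post-purification). Excite 680 nm, read 520-620 nm.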
Broadly, the pIC50 is the negative decadic logarithm of the IC50, by convention in mol/L. For `CC[C@H](C)[C@@H]1NC(=O)[C@H](C)N(C)C(=O)C[C@@H](C(=O)N(C)C)N(C)C(=O)[C@H]([C@@H](C)CC)N(C)C(=O)C2(CCCC2)NC(=O)[C@@H](Cc2ccccc2)N(C)C(=O)[C@H](CCc2ccc(C(F)(F)F)c(Cl)c2)NC(=O)CN(C)C(=O)[C@H](Cc2ccc(C)cc2)N(C)C(=O)[C@@H]2CCN2C(=O)[C@H](C)N(C)C1=O` [Compound 1889] ([NMeA]I[NMeA][Aze][NMePhe(4-Me)][Sar][hPhe(3-Cl-4-CF3)][dNMeF][Ac5c][NMeI][NMeD]-NMe2; lactam N-11), the pIC50 was 7.01.

`CC[C@H](C)[C@@H]1NC(=O)[C@H](CC(C)C)N(C)C(=O)C[C@@H](C(=O)N2CCCCC2)N(C)C(=O)[C@H](CC(C)C)NC(=O)C(C)(C)N(C)C(=O)[C@H](Cc2ccc(C)cc2)NC(=O)[C@H](Cc2cccc(I)c2)NC(=O)CN(C)C(=O)[C@H](CC2CCCCC2)N(C)C(=O)CN(C)C(=O)CN(C)C1=O` [Compound 166] ([NMeL]I[Sar][Sar][NMeCha][Sar][Phe(3-I)][Phe(4-Me)][NMeAib]L[NMeD]-Piperidide; lactam N-11): the pIC50 was 7.68.

With `CC[C@H](C)[C@@H]1NC(=O)[C@H](CC(C)C)N(C)C(=O)C[C@@H](C(=O)N2CCCCC2)N(C)C(=O)[C@H](C(C)C)N(C)C(=O)C2(CCCC2)NC(=O)[C@@H]2CC(=O)CN2C(=O)[C@H](CCc2ccc(C(F)(F)F)c(Cl)c2)NC(=O)CN(C)C(=O)[C@H](CC2CCCCC2)N(C)C(=O)[C@@H]2CCN2C(=O)[C@H](C)N(C)C1=O` [Compound 1819] ([NMeL]I[NMeA][Aze][NMeCha][Sar][hPhe(3-Cl-4-CF3)][Pro(4-oxo)][Ac5c][NMeV][NMeD]-Piperidide; lactam N-11), the pIC50 was 8.42.

Turning to `CC[C@H](C)[C@@H]1NC(=O)[C@H](CC(C)C)N(C)C(=O)C[C@@H](C(=O)N(C)C)N(C)C(=O)[C@H]([C@@H](C)CC)N(C)C(=O)[C@H](C)NC(=O)[C@H](CCN2CCCC(F)(F)C2)N(C)C(=O)[C@H](CCc2ccc(C(F)(F)F)c(Cl)c2)NC(=O)CN(C)C(=O)[C@H](Cc2ccc(C)cc2)N(C)C(=O)[C@@H]2CCN2C(=O)[C@H](C)N(C)C1=O` [Compound 1135] ([NMeL]I[NMeA][Aze][NMePhe(4-Me)][Sar][hPhe(3-Cl-4-CF3)][NMeAbu(3,3-F2-piperidino)]A[NMeI][NMeD]-NMe2; lactam N-11), the pIC50 was 8.24.

As to `CC[C@H](C)[C@@H]1NC(=O)[C@H](CC(C)C)N(C)C(=O)C[C@@H](C(=O)N2CCCCC2)N(C)C(=O)[C@H](CC(C)C)NC(=O)C(C)(C)N(C)C(=O)[C@H](Cc2ccc(OC)cc2)NC(=O)[C@H](Cc2cccc(I)c2)NC(=O)CN(C)C(=O)[C@H](CC2CCCCC2)N(C)C(=O)CN(C)C(=O)CN(C)C1=O` [Compound 320] ([NMeL]I[Sar][Sar][NMeCha][Sar][Phe(3-I)]Y(Me)[NMeAib]L[NMeD]-Piperidide; lactam N-11), the pIC50 was 8.00.

For `CC[C@@H]1NC(=O)[C@H](Cc2cccc(I)c2)NC(=O)CN(C)C(=O)[C@H](Cc2ccc(Cl)cc2)N(C)C(=O)CN(C)C(=O)CN(C)C(=O)[C@H]([C@@H](C)CC)NC(=O)[C@H](CC(C)C)N(C)C(=O)C[C@@H](C(=O)N2CCCCC2)N(C)C(=O)[C@H](CC(C)C)NC(=O)C(C)(C)N(C)C1=O` [Compound 457] ([NMeL]I[Sar][Sar][NMePhe(4-Cl)][Sar][Phe(3-I)][Abu][NMeAib]L[NMeD]-Piperidide; lactam N-11), the pIC50 is 7.16.

Regarding `CC[C@H](C)[C@@H]1NC(=O)CCNC(=O)[C@H](Cc2ccc(F)cc2)N(C)C(=O)[C@H](C2CCCCC2)N(C)C(=O)C2(CCCC2)NC(=O)[C@@H]2CCCN2C(=O)[C@H](CCc2ccc(C(F)(F)F)c(Cl)c2)NC(=O)CN(C)C(=O)[C@H](CC2CCCCC2)N(C)C(=O)CN(C)C(=O)CN(C)C1=O` [Compound 528] (cyclo([Ac5c][NMeChg][NMePhe(4-F)][βAla]I[Sar][Sar][NMeCha][Sar][hPhe(3-Cl-4-CF3)]P)), the pIC50 was 7.70.

For `CC[C@H](C)[C@@H]1NC(=O)[C@H](CC(C)C)N(C)C(=O)C[C@@H](C(=O)N2CCCCC2)N(C)C(=O)[C@H]([C@@H](C)OC)N(C)C(=O)C2(CCCC2)NC(=O)[C@@H]2CCCN2C(=O)[C@H](CCc2ccc(C(F)(F)F)c(Cl)c2)NC(=O)CN(C)C(=O)[C@H](CC2CCCCC2)N(C)C(=O)CN(C)C(=O)CN(C)C1=O` [Compound 1101] ([NMeL]I[Sar][Sar][NMeCha][Sar][hPhe(3-Cl-4-CF3)]P[Ac5c][NMeT](Me)[NMeD]-Piperidide; lactam N-11), the pIC50 is 8.05.

Consider `CC[C@H](C)[C@@H]1NC(=O)[C@H](C)N(C)C(=O)C[C@@H](C)NC(=O)[C@H](CC(C)C)N(C)C(=O)[C@H](Cc2ccccc2)N(C)C(=O)[C@@H]2CCCCN2C(=O)[C@H](CCc2ccc(C(F)(F)F)cc2)NC(=O)CN(C)C(=O)[C@H](Cc2ccc(Cl)cc2)N(C)C(=O)CN(C)C(=O)CN(C)C1=O` [Compound 299] (cyclo(I[Sar][Sar][NMePhe(4-Cl)][Sar][hPhe(4-CF3)][Pip][NMeF][NMeL][d(β3hA)][NMeA])), for which the pIC50 was 6.89.

(Values after patent US12371454B2, “Cyclic peptide compound having Kras inhibitory action” (priority 2019, dated 2025).)
